# Assay results taken from patent US20260159533A1, “INHIBITORS OF COMPLEMENT FACTORS AND USES THEREOF” (Annexon, Inc., priority 2022, published 2026).
# Structures can show the parent of a compound that is named as a salt.
# Biological target: T1, human C1s protein (Homo sapiens, UniProt P09871)
# T1 construct: purchased R&D Systems or Complement Technologies 2060-SE or A104
# T1 sequence (P09871 16-688): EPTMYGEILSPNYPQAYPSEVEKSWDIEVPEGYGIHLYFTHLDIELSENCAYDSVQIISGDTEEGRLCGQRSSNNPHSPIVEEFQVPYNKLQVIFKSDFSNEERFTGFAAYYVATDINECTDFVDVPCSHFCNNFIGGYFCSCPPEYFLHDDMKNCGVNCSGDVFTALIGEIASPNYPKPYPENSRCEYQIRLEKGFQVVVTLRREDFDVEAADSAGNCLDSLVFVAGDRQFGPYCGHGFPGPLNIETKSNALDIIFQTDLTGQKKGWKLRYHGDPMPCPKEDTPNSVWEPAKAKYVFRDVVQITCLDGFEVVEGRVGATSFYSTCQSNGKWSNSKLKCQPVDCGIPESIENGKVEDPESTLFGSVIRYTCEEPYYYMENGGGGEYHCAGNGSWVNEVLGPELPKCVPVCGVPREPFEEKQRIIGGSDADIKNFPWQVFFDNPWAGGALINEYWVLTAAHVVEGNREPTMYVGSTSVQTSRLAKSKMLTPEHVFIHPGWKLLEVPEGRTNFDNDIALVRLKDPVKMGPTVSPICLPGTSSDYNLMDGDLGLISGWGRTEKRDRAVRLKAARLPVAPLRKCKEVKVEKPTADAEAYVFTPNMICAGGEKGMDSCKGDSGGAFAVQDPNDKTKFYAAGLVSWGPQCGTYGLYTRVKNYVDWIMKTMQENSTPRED
# Assay: recombinant C1s enzymatic assay (YLGR-Rh110-dPro substrate hydrolysis, fluorescence)
# Assay type: biochemical
# Details: recombinant human C1s 2.5 nM, substrate YLGR-Rh110-dPro 20 μM, 15 min pre-incubation, 60 min RT; read-out: rec. hC11s pIC50 (converted)
# Description: Compound testing in the purified or recombinant C1s enzymatic assay C1s is a serine protease; its enzymatic activity is measured in vitro by the hydrolysis of the synthetic substrate YLGR-Rh110-dPro (Kerr F K, O'Brien G, Quinsey N S, Whisstock J C, Boyd S, de la Banda M G, Kaiserman D, Matthews A Y, Bird P I, Pike R N. Elucidation of the substrate specificity of the Cis protease of the classical complement pathway. J. Biol. Chem. (2005) 280, 39510-39514). The enzyme cleaves the substrate with the release of Rh110 which is highly fluorescent. Cis inhibitors prevent the hydrolysis of the substrate thus resulting in a decrease of the signal.
# The recombinant C1s enzymatic assay is performed using the human C1s protein (R&D Systems, 2060-SE or Complement Technologies, A104). The assay buffer composition is: 50 mM HEPES pH 7.5 (Sigma, H3375), 150 mM NaCl (Sigma, S7653), 0.2% PEG 8000 (VWR, AA43443-22), 0.01% Pluronic F127 (Sigma, P2243). On the day of the experiment 0.1 mg/mL BSA (Sigma, B4287) is added fresh to the buffer. The test item stock solutions are serially diluted 1:3 or 1:4 or 1:5 with DMSO, 11-point curves, in a 384-well compound plate. Nafamostat concentration curve is always included in the assay plate as a reference control.
# The assay plate is prepared by dispensing 0.25 μL from compound plate into a 384-well black assay plate (assay plate, Greiner Fluotrac 200, 781076, VWR 736-0140). The high controls are prepared dispensing in 0.25 μL DMSO in column 23, rows AH or AP and low controls with 0.25 μL of 0.1 μM Nafamostat. Cis solution is prepared as 2× of the 2.5 nM final assay concentration. The YLGR-Rh110-dPro substrate is prepared as 2× of the final assay concentration of 20 μM. 5 μL/well of 2× enzyme solution is dispensed and pre-incubated for 15 min with the compounds. The enzymatic reaction is the started with 5 μL/well of the 2× substrate solution. The plate is incubated for 60 min RT in the dark and fluorescence is measured (ex 485/em 535 nm) using an Envision (PerkinElmer) or an equivalent instrument.
row,SMILES,IC50
1,"Nc1cnnc2cc(-c3cc(B(O)O)ccc3-n3ccc(C(F)F)n3)ccc12 [Example 14, [3-(4-aminocinnolin-7-yl)-4-[3-(difluoromethyl)-1H-pyrazol-1-yl]phenyl]boronic acid formic acid salt]",14.8 nM
2,"Nc1cnnc2cc(-c3cc(B(O)O)ccc3-n3ccnn3)ccc12 [Example 16, [3-(4-aminocinnolin-7-yl)-4-(1H-1,2,3-triazol-1-yl)phenyl]boronic acid]",3.98 nM
3,"Nc1cnnc2cc(-c3cc(B(O)O)ccc3-c3nc[nH]n3)ccc12 [Example 20, [3-(4-aminocinnolin-7-yl)-4-(1H-1,2,4-triazol-3-yl)phenyl]boronic acid]",0.776 nM
4,"Nc1cnnc2cc(-c3cc(B(O)O)c(OC4CC(F)(F)C4)cc3-n3cccn3)ccc12 [Example 34, [5-(4-aminocinnolin-7-yl)-2-(3,3-difluorocyclobutoxy)-4-(1H-pyrazol-1-yl)phenyl]boronic acid formic acid salt]",11.5 nM
5,"Nc1cnnc2cc(-c3cc(B(O)O)ccc3-n3cc(C(F)F)cn3)ccc12 [Example 9, [3-(4-aminocinnolin-7-yl)-4-[4-(difluoromethyl)-1H-pyrazol-1-yl]phenyl]boronic acid]",1.74 nM
6,"Nc1cnnc2cc(-c3cc(B(O)O)ccc3-n3ccnc3)ccc12 [Example 3, [3-(4-aminocinnolin-7-yl)-4-(1H-imidazol-1-yl)phenyl]boronic acid]",66.1 nM
7,"Nc1cnnc2cc(-c3cc(B(O)O)cnc3-n3cccn3)ccc12 [Example 13, [5-(4-aminocinnolin-7-yl)-6-(1H-pyrazol-1-yl)pyridin-3-yl]boronic acid]",4.47 nM

# More lines, now with the values ahead:
row,IC50,SMILES
1,0.741 nM,"COc1cc(-n2cc(OC(F)F)cn2)c(-c2ccc3c(N)cnnc3c2)cc1B(O)O [Example 84, [5-(4-aminocinnolin-7-yl)-4-[4-(difluoromethoxy)pyrazol-1-yl]-2-methoxy-phenyl]boronic acid formic acid salt]"
2,1.45 nM,"Nc1cnnc2cc(-c3cc4c(cc3-c3nccs3)OCCOB4O)ccc12 [Example 76, 7-(1-hydroxy-7-thiazol-2-yl-3,4-dihydro-2,5,1-benzodioxaborepin-8-yl)cinnolin-4-amine]"
3,2.4 nM,"Nc1cnnc2cc(-c3cc(B(O)O)cc4c3-n3nccc3CCO4)ccc12 [Example 65, [[10-(4-aminocinnolin-7-yl)-4,5-dihydropyrazolo[5,1-d][1,5]benzoxazepin-8-yl]boronic acid formic acid salt]"
4,24.5 nM,"Cc1cc(-c2cc[nH]n2)c(-c2ccc3c(N)cnnc3c2)cc1B(O)O [Example 41, [5-(4-aminocinnolin-7-yl)-2-methyl-4-(1H-pyrazol-3-yl)phenyl]boronic acid]"
5,2.24 nM,"COc1cc(B(O)O)cc(-c2ccc3c(N)cnnc3c2)c1-n1cc(C(F)F)cn1 [Example 30, [3-(4-aminocinnolin-7-yl)-4-[4-(difluoromethyl)-1H-pyrazol-1-yl]-5-methoxyphenyl]boronic acid formic acid salt]"
